# According to PubChem BioAssay (NCI):
#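 Briefly, cells in 96-well plates were exposed to five compound concentrations for 48 h, and endpoints were estimated by linear interpolation. TGI: total growth inhibition.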
# Tests used:
# Test in all cases: DTP human tumour cell line panel, 48 h
# 786-0 renal = system: 786-0 renal
# A498 renal = system: A498 renal
# ACHN renal = system: ACHN renal
# BT-549 breast = system: BT-549 breast
# CAKI-1 renal = system: CAKI-1 renal
# CCRF-CEM leukemia = system: CCRF-CEM leukemia
# COLO 205 colon = system: COLO 205 colon
# DU-145 prostate = system: DU-145 prostate
# EKVX NSCLC = system: EKVX NSCLC
# HCC-2998 colon = system: HCC-2998 colon
# HCT-116 colon = system: HCT-116 colon
# HCT-15 colon = system: HCT-15 colon
# HL-60(TB) leukemia = system: HL-60(TB) leukemia
# HOP-62 NSCLC = system: HOP-62 NSCLC
# HOP-92 NSCLC = system: HOP-92 NSCLC
# HS 578T breast = system: HS 578T breast
# IGROV1 ovarian = system: IGROV1 ovarian
# K-562 leukemia = system: K-562 leukemia
# KM12 colon = system: KM12 colon
# LOX IMVI melanoma = system: LOX IMVI melanoma
# M14 melanoma = system: M14 melanoma
# MCF7 breast = system: MCF7 breast
# MDA-MB-231 breast = system: MDA-MB-231 breast
# MDA-MB-435 = system: MDA-MB-435
# MDA-N = system: MDA-N
# MOLT-4 leukemia = system: MOLT-4 leukemia
# NCI-H226 lung = system: NCI-H226 lung
# NCI-H23 lung = system: NCI-H23 lung
# NCI-H460 lung = system: NCI-H460 lung
# NCI-H522 lung = system: NCI-H522 lung
# NCI/ADR-RES ovarian = system: NCI/ADR-RES ovarian
# OVCAR-3 ovarian = system: OVCAR-3 ovarian
# OVCAR-4 ovarian = system: OVCAR-4 ovarian
# OVCAR-5 ovarian = system: OVCAR-5 ovarian
# OVCAR-8 ovarian = system: OVCAR-8 ovarian
# PC-3 prostate = system: PC-3 prostate
# RXF 393 renal = system: RXF 393 renal
# SF-268 CNS = system: SF-268 CNS
# SF-295 CNS = system: SF-295 CNS
# SF-539 CNS = system: SF-539 CNS
# SK-MEL-2 melanoma = system: SK-MEL-2 melanoma
# SK-MEL-5 melanoma = system: SK-MEL-5 melanoma
# SK-OV-3 ovarian = system: SK-OV-3 ovarian
# SN12C renal = system: SN12C renal
# SNB-19 CNS = system: SNB-19 CNS
# SNB-75 CNS = system: SNB-75 CNS
# SR leukemia = system: SR leukemia
# SW-620 colon = system: SW-620 colon
# T-47D breast = system: T-47D breast
# TK-10 renal = system: TK-10 renal
# U251 CNS = system: U251 CNS
# UACC-257 melanoma = system: UACC-257 melanoma
# UACC-62 melanoma = system: UACC-62 melanoma
# UO-31 renal = system: UO-31 renal
# A549 NSCLC = system: A549 NSCLC
# HT29 colon = system: HT29 colon
# RPMI-8226 leukemia = system: RPMI-8226 leukemia
smiles,measurement,setting,value
CC(=O)O[C@@H]1[C@H]2[C@@H](OC(=O)c3ccccc3)[C@@H](C)C[C@]2(O)[C@H](OC(C)=O)[C@@]2(C)[C@@H]3C[C@@](C)(OC(C)=O)C[C@@H](OC(C)=O)[C@@]3(OC(C)=O)C[C@@]12C,TGI,786-0 renal,> 10000 nM
same,TGI,A498 renal,> 10000 nM
same,TGI,ACHN renal,> 10000 nM
same,TGI,BT-549 breast,> 10000 nM
same,TGI,CAKI-1 renal,> 10000 nM
same,TGI,CCRF-CEM leukemia,> 10000 nM
same,TGI,COLO 205 colon,> 10000 nM
same,TGI,DU-145 prostate,> 10000 nM
same,TGI,EKVX NSCLC,> 10000 nM
same,TGI,HCC-2998 colon,> 10000 nM
same,TGI,HCT-116 colon,> 10000 nM
same,TGI,HCT-15 colon,> 10000 nM
same,TGI,HL-60(TB) leukemia,> 10000 nM
same,TGI,HOP-62 NSCLC,> 10000 nM
same,TGI,HOP-92 NSCLC,> 10000 nM
same,TGI,HS 578T breast,> 10000 nM
same,TGI,IGROV1 ovarian,> 10000 nM
same,TGI,K-562 leukemia,> 10000 nM
same,TGI,KM12 colon,> 10000 nM
same,TGI,LOX IMVI melanoma,> 10000 nM
same,TGI,M14 melanoma,> 10000 nM
same,TGI,MCF7 breast,> 10000 nM
same,TGI,MDA-MB-231 breast,> 10000 nM
same,TGI,MDA-MB-435,> 10000 nM
same,TGI,MDA-N,> 10000 nM
same,TGI,MOLT-4 leukemia,> 10000 nM
same,TGI,NCI-H226 lung,> 10000 nM
same,TGI,NCI-H23 lung,> 10000 nM
same,TGI,NCI-H460 lung,> 10000 nM
same,TGI,NCI-H522 lung,> 10000 nM
same,TGI,NCI/ADR-RES ovarian,> 10000 nM
same,TGI,OVCAR-3 ovarian,> 10000 nM
same,TGI,OVCAR-4 ovarian,> 10000 nM
same,TGI,OVCAR-5 ovarian,> 10000 nM
same,TGI,OVCAR-8 ovarian,> 10000 nM
same,TGI,PC-3 prostate,> 10000 nM
same,TGI,RXF 393 renal,> 10000 nM
same,TGI,SF-268 CNS,> 10000 nM
same,TGI,SF-295 CNS,> 10000 nM
same,TGI,SF-539 CNS,> 10000 nM
same,TGI,SK-MEL-2 melanoma,> 10000 nM
same,TGI,SK-MEL-5 melanoma,> 10000 nM
same,TGI,SK-OV-3 ovarian,> 10000 nM
same,TGI,SN12C renal,> 10000 nM
same,TGI,SNB-19 CNS,> 10000 nM
same,TGI,SNB-75 CNS,> 10000 nM
same,TGI,SR leukemia,> 10000 nM
same,TGI,SW-620 colon,> 10000 nM
same,TGI,T-47D breast,> 10000 nM
same,TGI,TK-10 renal,> 10000 nM
same,TGI,U251 CNS,> 10000 nM
same,TGI,UACC-257 melanoma,> 10000 nM
same,TGI,UACC-62 melanoma,> 10000 nM
same,TGI,UO-31 renal,> 10000 nM
CCOC(=O)C(Cc1ccc(N(CCCl)CCCl)cc1)NC(=O)C(Cc1ccccc1)NC(C)=O (stereo not given),TGI,786-0 renal,> 399 nM
same,TGI,A498 renal,> 414 nM
same,TGI,A549 NSCLC,> 1000 nM
same,TGI,ACHN renal,309 nM
same,TGI,BT-549 breast,> 798 nM
same,TGI,CAKI-1 renal,419 nM
same,TGI,CCRF-CEM leukemia,213 nM
same,TGI,COLO 205 colon,> 321 nM
same,TGI,DU-145 prostate,> 1000 nM
same,TGI,EKVX NSCLC,> 538 nM
same,TGI,HCC-2998 colon,> 1000 nM
same,TGI,HCT-116 colon,> 388 nM
same,TGI,HCT-15 colon,> 1000 nM
same,TGI,HL-60(TB) leukemia,> 264 nM
same,TGI,HOP-62 NSCLC,> 431 nM
same,TGI,HOP-92 NSCLC,> 1000 nM
same,TGI,HS 578T breast,> 1000 nM
same,TGI,HT29 colon,> 219 nM
same,TGI,IGROV1 ovarian,> 308 nM
same,TGI,K-562 leukemia,> 502 nM
same,TGI,KM12 colon,> 565 nM
same,TGI,LOX IMVI melanoma,> 386 nM
same,TGI,M14 melanoma,> 318 nM
same,TGI,MCF7 breast,496 nM
same,TGI,MDA-MB-231 breast,> 366 nM
same,TGI,MDA-MB-435,> 1000 nM
same,TGI,MDA-N,> 371 nM
same,TGI,MOLT-4 leukemia,201 nM
same,TGI,NCI-H226 lung,> 1000 nM
same,TGI,NCI-H23 lung,> 304 nM
same,TGI,NCI-H460 lung,> 553 nM
same,TGI,NCI/ADR-RES ovarian,> 618 nM
same,TGI,OVCAR-3 ovarian,361 nM
same,TGI,OVCAR-4 ovarian,35.3 nM
same,TGI,OVCAR-5 ovarian,> 435 nM
same,TGI,OVCAR-8 ovarian,> 1000 nM
same,TGI,PC-3 prostate,> 374 nM
same,TGI,RPMI-8226 leukemia,211 nM
same,TGI,RXF 393 renal,259 nM
same,TGI,SF-268 CNS,> 288 nM
same,TGI,SF-295 CNS,> 501 nM
same,TGI,SF-539 CNS,> 294 nM
same,TGI,SK-MEL-2 melanoma,> 360 nM
same,TGI,SK-MEL-5 melanoma,> 486 nM
same,TGI,SK-OV-3 ovarian,> 440 nM
same,TGI,SN12C renal,> 296 nM
same,TGI,SNB-19 CNS,> 578 nM
same,TGI,SNB-75 CNS,> 1000 nM
same,TGI,SR leukemia,> 1000 nM
same,TGI,SW-620 colon,> 1000 nM
same,TGI,T-47D breast,> 928 nM
same,TGI,TK-10 renal,> 325 nM
same,TGI,U251 CNS,> 787 nM
same,TGI,UACC-257 melanoma,> 486 nM
same,TGI,UACC-62 melanoma,> 277 nM
same,TGI,UO-31 renal,> 328 nM
